According to patent US20060239958A1, “Biodegradable and pressure-sensitive material for medical use” (priority 2003, published 2006):

Tested on: L929 cells
Assay: Cytotoxicity test using L929 cells
Assay type: cell-based
Method: FIG. 1 is a graph showing the result of a cytotoxicity test on three compounds related to the synthesis of a citric acid derivative (CAD).
A cytotoxicity test was carried out in the following manner. As one example of the low-molecular-weight derivative serving as the hardening component, a biological low-molecular-weight derivative (CAD) was synthesized by modifying three carboxyl groups of a citric acid with N-hydroxysuccinimide (HOSu), and a cytotoxicity test was performed using L929 cells and the synthesized CAD. The number of cells in a sample added with no CAD was defined as 100%.

| SMILES | cytotoxicity (number of cells; sample added with no CAD defined as 100%) |
| --- | --- |
| O=C(CC(O)(CC(=O)ON1C(=O)CCC1=O)C(=O)ON1C(=O)CCC1=O)ON1C(=O)CCC1=O [CAD] | extremely low toxicity |
| O=C1CCC(=O)N1O [HOSu, N-hydroxysuccinimide] | extremely low toxicity |
| O=C(O)CC(O)(CC(=O)O)C(=O)O [citric acid] | extremely low toxicity |
